Source: PMC10212229 (Pharmaceutical Research, 2023)
“Also recorded” adds a separate entry of the source.

Assays:
[1] = Paxlovid PBPK model verification, nirmatrelvir predicted vs observed exposure; set-up: species or system human
[2] = without ritonavir coadministration; cited from earlier work
Caco-2 = conditions: cited from earlier work
[3] = In vitro precipitation test of nirmatrelvir SDD formulation; type: physicochemical; conditions: Pfizer data on file
MDCK-LE = conditions: cited from earlier work
CYP3A4 = conditions: cited from earlier work
[4] = Clinical pharmacokinetics of nirmatrelvir in healthy volunteers; type: in vivo, human; conditions: for renal clearance in the presence and absence of ritonavir: with vs without ritonavir
[5] = Simcyp ritonavir first-order compound file; set-up: species or system human; conditions: PK and DDI

Row | SMILES | deviation of predicted AUC and Cmax from the observed [1] | half-life [2] | Papp (Caco-2) | period remained in solution without precipitating [3] | Papp (MDCK-LE) | in vitro fm,CYP3A4 (CYP3A4; formation rate of the major metabolites with selective inhibitors) | main metabolizing enzyme (CYP3A4; in vitro reaction phenotyping data) | oral clearance (CLPO) ([4]; SDD 300 mg single dose without ritonavir, Dataset #1, geometric mean) | renal clearance in the presence and absence of ritonavir [4] | renal clearance in the presence and absence of ritonavir ([4]; listed as nirmatrelvir) | predicted vs observed values, ritonavir model [5]
1 | CC(C)(C)[C@H](NC(=O)C(F)(F)F)C(=O)N1C[C@H]2[C@@H]([C@H]1C(=O)N[C@H](C#N)C[C@@H]1CCNC1=O)C2(C)C [Nirmatrelvir, nirmatrelvir] | ≤ 20% | 2 h | 0.66–1.19 10^–6 cm/s | 24 h | 1.76 10^–6 cm/s | 0.99 | mainly metabolized by CYP3A4; also recorded: predominantly metabolized by CYP3A4 | 28.36 L/h | did not change | remains the same | –
2 | CC(C)c1nc(CN(C)C(=O)N[C@H](C(=O)N[C@@H](Cc2ccccc2)C[C@H](O)[C@H](Cc2ccccc2)NC(=O)OCc2cncs2)C(C)C)cs1 [Ritonavir, ritonavir] | – | – | – | – | – | – | – | – | – | – | within twofold
